Test results reported in patent US11434205B2, “Substituted imidazole carboxylate derivatives and the use thereof” (priority 2018, dated 2022).
Read-outs that look alike come from different tables or passages of the source.

Legend:
rats [1] = assay: Loss of righting reflexes (LORR) assay in rats, ED50 by up and down method; assay type: in vivo, rat; settings: tail vein, class symbols; for ED50: Rattus norvegicus
Outline: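 ED50 obtained by up-and-down dosing, with righting-reflex loss over 30 s counted as general anesthesia. Compounds injected into the tail vein (0.1 mL/s) of male Sprague-Dawley rats weighing 250-300 g.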

rats [2] = system: rats
Method: Adult male Sprague-Dawley rats (250-300 g) were selected for the experiment. […] The anesthesia effects of the compounds were assessed in rats using a LORR assay and a period >30 s was considered as an indicator of general anesthesia. Then the up and down method was used to determine 50% effective dose (ED50). The drugs were administered through the tail vein of rats in a volume of 0.6 mL and at a rate of 0.1 mL/s.

rats [3] = assay: Pharmacological characteristics at equivalent doses (2×ED50) in rats; settings: 2×ED50, tail vein; for Adverse reactions: Red urine (incidence): DMSO solution (DMSO alone 10/10); for Onset time: time of LORR; for Adverse reactions: Tremor (incidence): animals affected/animals
Outline: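 Anesthesia onset, recorded as time of LORR, was measured after a 2×ED50 tail-vein injection (0.6 mL, 0.1 mL/s). Animals were male Sprague-Dawley rats of 250-300 g, n=8.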

rats [4] = assay type: in vivo, rat; settings: rats of the MAP/HR figures, 2×ED50, tail vein; same value in min
Outline: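 Hemodynamic stability judged from mean arterial pressure and heart rate, recorded at 15 s intervals over 30 min pre- and post-dose. Dosing was through a tail-vein indwelling catheter in rats carrying implanted aortic/ventricular catheters and ECG wires, operated ≥1 week earlier.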

rats [5] = settings: continuous tail vein infusion at 2×MIR, LORR maintained 1 hour
Method: Pharmacological Effects of the Compounds on Continuous Infusion in Rats
Adult male Sprague-Dawley rats with body weight ranging from 250 to 300 gm were selected for continuous infusion test. […] Time to recovery of righting reflex from stopping infusion, and time to fully awake from stopping infusion were recorded.

rats [6] = assay type: in vivo, rat; settings: rats of the MAP/HR figures, 2×ED50, tail vein

| Compound | ED50 (rats [1]) [mg/kg] | Approximate therapeutic index (rats [2]) | Minimal lethal dose (rats [2]) [mg/kg] | Righting reflex duration (rats [3]) [min] | Adverse reactions: Red urine (incidence) (rats [3]) | Onset time (rats [3]) [min] | recovery time of the test animals' righting reflex (rats [4]) [min] | Onset time (rats [5]; Table D4) [min] | Recovery time after stopping infusion (rats [5]; Table D4) [min] | Types and incidence of adverse reactions (rats [5]; Table D4) | recovery time of the test animals' righting reflex (rats [6]) [s] | Adverse reactions: Restlessness (incidence) (rats [3]) | Adverse reactions: Tremor (incidence) (rats [3]) | Adverse reactions: Euphoria (incidence) (rats [3]) | Adverse reactions: Tongue stretching (incidence) (rats [3]) | ED50 (mg/kg) (rats [1]) | Sedation duration (mg/kg) (rats [3]) | Onset time (rats [5]; Table E4) [min] | Recovery time after stopping infusion (rats [5]; Table E4) [min] | Types and incidence of adverse reactions (rats [5]; Table E4) |
| --- | --- | --- | --- | --- | --- | --- | --- | --- | --- | --- | --- | --- | --- | --- | --- | --- | --- | --- | --- | --- |
| C#CC1(OC(=O)c2cncn2[C@H](C)c2ccccc2)CCC1 [Compound D1] | 0.1 to 0.5 | >14 | >6 | 4.28 ± 1.78 | Red urine (8/8) | 0.26 ± 0.10 | 13.08 | 3 to 4 | 11 to 14 | Tremor (2/6) | 785 | – | – | – | – | – | – | – | – | – |
| C#CC1(OC(=O)c2cncn2[C@H](C)c2ccccc2)COC1 [Compound D3] | 0.5 to 1 | >10 | >8 | 1.05 ± 0.29 | urine (8/8) | 0.19 ± 0.05 | 1.27 | 2 to 3 | 7 to 9 | Restlessness (2/6), Tremor (3/6) | 76 | Restlessness (4/8), Red | – | – | – | – | – | – | – | – |
| C#CC1(COC(=O)c2cncn2[C@H](C)c2ccccc2)CCC1 [Compound D10] | 0.5 to 1 | >12 | >6 | 6.04 ± 2.27 | (8/8) | 0.14 ± 0.03 | 10.08 | 3 to 4 | 13 to 17 | Tremor (6/6) | 605 | – | Tremor (2/8), Red urine | – | – | – | – | – | – | – |
| C=C=CC(C)OC(=O)c1cncn1[C@H](C)c1ccccc1 (stereo partly drawn) [Compound D22] | 0.1 to 0.5 | >11 | >2 | 4.51 ± 1.63 | urine (8/8) | 0.24 ± 0.07 | 0.83 | 3 to 4 | 14 to 18 | Euphoria (2/6), Tremor (4/6) | 50 | – | – | Euphoria (1/8), Red | – | – | – | – | – | – |
| C=C=CC(C)(C)OC(=O)c1c(F)ncn1[C@H](C)c1ccccc1 [Compound E19] | 0.01 to 0.1 | >40 | >4 | 0.80 ± 0.30 | urine (8/8) | 0.34 ± 0.13 | 0.93 | – | – | – | 56 | – | (3/8), Red | – | – | – | – | – | – | – |
| C=CC#CC(C)OC(=O)c1c(F)ncn1[C@H](C)c1ccccc1 (stereo partly drawn) [Compound E20] | 0.01 to 0.1 | >80 | >5 | 0.75 ± 0.21 | (8/8) | 0.51 ± 0.16 | 0.85 | – | – | – | 51 | – | – | – | (2/8), | – | – | – | – | – |
| C=CC#CC(C)(C)OC(=O)c1c(F)ncn1[C@H](C)c1ccccc1 [Compound E21] | – | >12 | >9 | 2.76 ± 2.17 | (8/8) | 0.49 ± 0.20 | 2.58 | – | – | – | 155 | – | – | – | – | C (C indicates that the measured ED50 is in the range of 0.50-1.00 mg/kg (excluding 0.50 mg/kg, including 1.00 mg/kg).) | 7.71 ± 3.03 | – | – | – |
| CCC(CC)OC(=O)c1c(F)ncn1[C@H](C)c1ccccc1 [Compound E22] | – | >30 | >4 | 0.99 ± 0.70 | urine (8/8) | 0.73 ± 0.13 | 1.10 | – | – | – | 66 | – | (4/8), Red | – | – | B (B means that the measured ED50 is in the range of 0.10-0.50 mg/kg (excluding 0.10 mg/kg, including 0.50 mg/kg).) | 5.51 ± 1.13 | – | – | – |
| CC(C)OC(=O)c1c(F)ncn1[C@H](C)c1ccccc1 [Compound E24] | 0.01 to 0.1 | >45 | >4 | 1.00 ± 0.29 | (8/8) | 0.38 ± 0.14 | 1.25 | – | – | – | 75 | – | – | – | – | – | – | – | – | – |
| C#CC(C)(C)OC(=O)c1c(F)ncn1[C@H](C)c1ccccc1 [Compound E25] | 0.1 to 0.5 | >24 | >6 | 2.10 ± 0.86 | urine (8/8) | 0.25 ± 0.09 | 2.23 | – | – | – | 134 | (2/8), Red | – | – | – | – | – | – | – | – |
| C[C@H](c1ccccc1)n1cnc(F)c1C(=O)OCC(C)(C)C [Compound E26] | – | >50 | >4 | 1.45 ± 0.41 | (8/8) | 0.48 ± 0.09 | 1.57 | – | – | – | 94 | – | – | – | – | A (A indicates that the measured ED50 is in the range of 0.01-0.10 mg/kg (including 0.01 and 0.10 mg/kg).) | 6.37 ± 1.31 | – | – | – |
| C[C@H](c1ccccc1)n1cnc(F)c1C(=O)OC1(C)CCC1 [Compound E27] | – | >24 | >6 | 4.13 ± 1.12 | (8/8) | 0.31 ± 0.10 | 4.10 | – | – | – | 246 | – | – | – | – | B (B means that the measured ED50 is in the range of 0.10-0.50 mg/kg (excluding 0.10 mg/kg, including 0.50 mg/kg).) | 10.23 ± 1.60 | – | – | – |
| CCC(C)(C)OC(=O)c1c(F)ncn1[C@H](C)c1ccccc1 [Compound E28] | 0.1 to 0.5 | >16 | >6 | 2.69 ± 1.07 | (8/8) | 0.43 ± 0.19 | 2.5 | – | – | – | 150 | – | – | – | – | – | – | – | – | – |
| CCCC(C)(C)OC(=O)c1c(F)ncn1[C@H](C)c1ccccc1 [Compound E29] | 0.1 to 0.5 | >15 | >6 | 2.74 ± 2.63 | (8/8) | 0.48 ± 0.21 | 2.75 | – | – | – | 165 | – | – | – | – | – | – | – | – | – |
| CCC(C)(CC)OC(=O)c1c(F)ncn1[C@H](C)c1ccccc1 [Compound E30] | 0.1 to 0.5 | >42 | >6 | 1.23 ± 0.58 | (8/8) | 0.60 ± 0.18 | 1.33 | – | – | – | 80 | – | – | – | – | – | – | – | – | – |
| C=CC(C)(C)OC(=O)c1c(F)ncn1[C@H](C)c1ccccc1 [Compound E32] | – | >30 | >4 | 3.86 ± 1.13 | urine (8/8) | 0.30 ± 0.14 | 3.65 | – | – | – | 219 | – | (3/8), Red | – | – | B (B means that the measured ED50 is in the range of 0.10-0.50 mg/kg (excluding 0.10 mg/kg, including 0.50 mg/kg).) | 8.70 ± 2.07 | 2 to 3 | 12 to 16 | Tremor (2/6), Tongue stretching (3/6) |
